From patent US12551541B2, “Albumin bound macromolecule tri-agonist activating GLP 1/GIP/glucagon receptors and methods therefor” (AlbuNext, LLC, priority 2023, dated 2026)

What was measured:
[1] = 0.16 pmol/kg per minute; cited from earlier work
[2] = monotherapy, cited from earlier work
[3] = in vivo; cited from earlier work
[4] = molecular target: GLP-1 receptor (Homo sapiens, UniProt P43220); conditions: cited from earlier work
[5] = tested on: DIO (diet induced obesity) mice; assay: DIO (diet induced obesity) mice, single subcutaneous injection, NASH; assay type: in vivo; conditions: single dosage of 100 nmol/kg, over 26 days
Protocol: In still further experiments to confirm that contemplated compounds presented herein are also effective as modulators for hepatic metabolism, and particularly in the treatment and even at least partial reversion of NASH (non-alcoholic […]), the inventors tested selected compounds in DIO (diet induced obesity) mice. […] The body weight of all treated animals was recorded over 26 days, and average body weight over time for 16 and 26 days are shown in FIG. 34A and FIG. 34B, respectively.
To investigate liver function and metabolism, liver weight was determined at the end of the study and results are shown in FIG. 38. […] In addition, liver function was assessed at the end of the study by testing AST (aspartate aminotransferase) and ALT (alanine transaminase).
In still further tests for hepatic metabolic modulation, the inventors also determined total cholesterol and LDL cholesterol at the end of the study, and exemplary results are shown in FIG. 41 (for total cholesterol) and FIG. 42 (for LDL cholesterol). […] As diet induced obesity is also often associated with inflammation, the inventors also measured levels of selected pro-inflammatory cytokines. Here, IL-1α and IL-6 levels were determined at the end of the study.

Sequence of GLP-1 receptor (P43220 24-463, species assumed): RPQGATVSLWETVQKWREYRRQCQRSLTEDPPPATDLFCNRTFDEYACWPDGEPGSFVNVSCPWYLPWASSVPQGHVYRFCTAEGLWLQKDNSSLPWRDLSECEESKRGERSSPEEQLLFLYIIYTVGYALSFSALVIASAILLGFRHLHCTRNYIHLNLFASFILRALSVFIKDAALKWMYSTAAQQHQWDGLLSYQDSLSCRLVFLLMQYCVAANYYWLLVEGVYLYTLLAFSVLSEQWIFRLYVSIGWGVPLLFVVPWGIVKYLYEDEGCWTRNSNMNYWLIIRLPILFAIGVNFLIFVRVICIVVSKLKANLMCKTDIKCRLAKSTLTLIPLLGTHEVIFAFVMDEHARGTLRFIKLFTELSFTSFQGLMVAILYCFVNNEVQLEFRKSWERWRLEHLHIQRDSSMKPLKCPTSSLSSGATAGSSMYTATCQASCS

**Q.** With “GLP-1: naturally occurring hormone released by L cells in the lower intestine” as the substance, how does the adverse events [1] read?
**A.** vomiting within eight minutes

**Q.** What does the source list for albiglutide?
**A.** decrease in HbA1c from baseline ([2]; 30 mg weekly dose, week 52): −0.7%; change from baseline of HbA1c ([2]; 50 mg weekly dose): −0.9%; half-life [3]: 140 to 190 h; GLP-1 receptor affinity [4]: 20 nM

**Q.** Which body weight [5] does the source give for semaglutide [reference compound] here?
**A.** effective in reduction of body weight
